PubChem BioAssay AID504388 (Southern Research Specialized Biocontainment Screening …, 2011)
Activity calls are given as the source filed them. How the calls were made is not given here.

tested on: host cell cytotoxicity, % cell control, HIV fusion counter-screen; test: host cell toxicity in fusion assay cells, dose response, cytotoxicity control for CCR5-tropic HIV-1 fusion inhibitors (AID 504388)

Point of comparison: `Cc1c2c(=O)n(-c3nc4ccccc4s3)nc-2cc(O)n1Cc1ccccc1Cl`, CC50 23.5 µM. Against it:
- CS(=O)(=O)C1=NSC2=NC(=O)/C(=C\c3cccn3-c3cc(Cl)cc(Cl)c3)C(=N)N21 — 2.2-fold higher, 51.9 µM
- O=C(O)CCCN1C(=O)/C(=C\c2ccc(-c3ccc(Br)cc3)o2)SC1=S — 3.2-fold lower, 7.36 µM
- CCc1ccc(-n2cccc2/C=C2/C(=N)N3C(=NC2=O)SN=C3S(C)(=O)=O)cc1 — within 1.5-fold, 30.7 µM
- COc1ccc(-n2cccc2/C=C2/C(=N)N3C(=NC2=O)SN=C3S(C)(=O)=O)cc1Cl — 4.1-fold higher, 96 µM
- Cc1c2c(=O)n(-c3nc4ccccc4s3)nc-2cc(O)n1Cc1cccnc1 — 3.2-fold lower, 7.3 µM
- CS(=O)(=O)C1=NSC2=NC(=O)/C(=C\c3cccn3-c3ccc(Br)cc3)C(=N)N21 — 1.6-fold higher, 36.9 µM
- CS(=O)(=O)C1=NSC2=NC(=O)/C(=C\c3cccn3-c3ccc(F)cc3)C(=N)N21 — 1.5-fold higher, 36.3 µM
- CCOc1ccc(-n2cccc2/C=C2/C(=N)N3C(=NC2=O)SN=C3S(C)(=O)=O)cc1 — 1.7-fold higher, 40.2 µM
- CCOC(=O)C1=C(c2ccccc2)N=c2s/c(=C\c3ccc(OCC(=O)O)cc3)c(=O)n2C1c1cccc(OC)c1 (centres undefined) — 2.2-fold higher, 51.5 µM
- O=C(O)CCCN1C(=O)/C(=C\c2ccc(-c3cccc(Cl)c3)o2)SC1=S — 2.2-fold higher, 51.1 µM
- O=C(O)CCCN1C(=O)/C(=C\c2ccc(-c3ccc(F)cc3)o2)SC1=S — 3.8-fold higher, 88.2 µM
- Cc1c2c(=O)n(-c3nc4ccccc4s3)nc-2cc(O)n1Cc1cccs1 — 1.8-fold higher, 42.5 µM
- CS(=O)(=O)C1=NSC2=NC(=O)/C(=C\c3cccn3-c3ccc(Cl)c(Cl)c3)C(=N)N21 — 1.7-fold higher, 39.4 µM
- O=C(O)c1ccc(C[n+]2c(-c3ccccc3)csc2Nc2ccccc2)cc1 — 3.2-fold higher, 75.2 µM
- COc1ccccc1NS(=O)(=O)c1ccc2c(c1)C1C=CCC1C(c1ccc(C(=O)O)cc1)N2 (centres undefined) — 3-fold higher, 70.9 µM
- Cc1c2c(=O)n(-c3nc4ccccc4s3)nc-2cc(O)n1CCc1ccc(O)cc1 — within 1.5-fold, 27.2 µM
- COc1ccccc1Cn1c(O)cc2nn(-c3nc4ccccc4s3)c(=O)c-2c1C — 1.6-fold higher, 36.6 µM
- Cc1c2c(=O)n(-c3nc4ccccc4s3)nc-2cc(O)n1C1CC1 — 3.9-fold lower, 6 µM
- CS(=O)(=O)C1=NSC2=NC(=O)/C(=C\c3cccn3-c3cccc(Cl)c3)C(=N)N21 — 1.6-fold higher, 36.5 µM
- CCOC(=O)C1=C(C)N=c2sc(=Cc3ccc(OCC(=O)O)cc3)c(=O)n2C1c1ccc(F)cc1 (centres undefined) — 2.7-fold higher, 63 µM
- Cc1c2c(=O)n(-c3nc4ccccc4s3)nc-2cc(O)n1Cc1ccc(F)cc1 — 1.6-fold higher, 38.5 µM
- O=C(O)CCCN1C(=O)/C(=C\c2ccc(-c3ccc(Cl)cc3)o2)SC1=S — 1.6-fold higher, 37.5 µM
- COc1ccc(-c2ccc(/C=C3\SC(=S)N(CCCC(=O)O)C3=O)o2)cc1 — 3.3-fold higher, 78.6 µM
- COc1ccc(Cn2c(O)cc3nn(-c4nc5ccccc5s4)c(=O)c-3c2C)cc1 — 1.7-fold higher, 39.4 µM
- Cc1c2c(=O)n(-c3nc4ccccc4s3)nc-2cc(O)n1Cc1ccncc1 — 4.5-fold lower, 5.17 µM
- CCOC(=O)C1=C(C)N=c2s/c(=C\c3ccc(OCC(=O)O)cc3)c(=O)n2C1c1ccc(Cl)cc1 (centres undefined) — 1.6-fold higher, 38.3 µM
- Cc1ccc(-n2cccc2/C=C2/C(=N)N3C(=NC2=O)SN=C3S(C)(=O)=O)cc1C — within 1.5-fold, 32.7 µM
- Cc1c2c(=O)n(-c3nc4ccccc4s3)nc-2cc(O)n1CCC(C)C — 1.6-fold higher, 36.5 µM
- COc1ccc(CCn2c(O)cc3nn(-c4nc5ccccc5s4)c(=O)c-3c2C)cc1 — 1.5-fold higher, 36.4 µM
- O=C(O)CCCN1C(=O)/C(=C/c2ccc(-c3cccc(C(F)(F)F)c3)o2)SC1=S — 3.9-fold higher, 92.8 µM
- CCOC(=O)C1=C(C)N=c2sc(=Cc3ccc(OCC(=O)O)cc3)c(=O)n2C1c1ccccc1 (centres undefined) — 2.6-fold higher, 62.2 µM
- CS(=O)(=O)C1=NSC2=NC(=O)/C(=C\c3cccn3-c3cccc(C(F)(F)F)c3)C(=N)N21 — 2.3-fold higher, 53.9 µM
- O=C(O)CCCN1C(=O)/C(=C/c2ccc(-c3ccc(Cl)c(Cl)c3)o2)SC1=S — within 1.5-fold, 18.3 µM
- O=C(O)c1ccc(C2Nc3ccc(S(=O)(=O)Nc4cc(Cl)ccc4Cl)cc3C3C=CCC32)cc1 (centres undefined) — 3.6-fold higher, 85.6 µM
- CCOC(=O)C1=C(C)N=c2sc(=Cc3ccc(OCC(=O)O)cc3)c(=O)n2C1c1ccc(OC)cc1OC (centres undefined) — 2.4-fold higher, 55.8 µM
- CS(=O)(=O)C1=NSC2=NC(=O)/C(=C\c3cccn3-c3ccc(Cl)cc3)C(=N)N21 — 1.7-fold higher, 39.7 µM
- CS(=O)(=O)C1=NSC2=NC(=O)/C(=C\c3cccn3-c3cccc(F)c3)C(=N)N21 — 2.1-fold higher, 48.5 µM
- O=C(O)c1ccc([C@@H]2Nc3ccc(S(=O)(=O)Nc4cccc5ccccc45)cc3[C@@H]3C=CC[C@@H]32)cc1 — 2.9-fold higher, 68.9 µM
- CCOC(=O)C1=C(C)N=c2s/c(=C\c3ccc(OCC(=O)O)cc3)c(=O)n2C1c1ccc(OC)c(OCC)c1 (centres undefined) — 3.1-fold higher, 71.9 µM
- Cc1ccc(-n2cccc2/C=C2/C(=N)N3C(=NC2=O)SN=C3S(C)(=O)=O)cc1 — 1.7-fold higher, 39.5 µM

`COc1cccc(C2C(C(=O)Nc3ccccc3)=C(C)N=c3sc(=Cc4ccc(OCC(=O)O)cc4)c(=O)n32)c1` (centres undefined) was tested, and the CC50 was > 100 µM (inactive).
`O=C(O)CCC(C(=O)O)N1C(=O)/C(=C\c2ccco2)SC1=S` (centres undefined) was tested, and the CC50 was > 100 µM (inactive).
`O=C(O)c1ccc(C[n+]2c(-c3ccc([N+](=O)[O-])cc3)csc2Nc2ccccc2)cc1` was tested, and the CC50 was > 100 µM (inactive).
With `Cc1c2c(=O)n(-c3nc4ccccc4s3)nc-2cc(O)n1CCc1cccs1` the CC50 was > 100 µM (inactive).
`CC1=C(C(=O)OC(C)C)C(c2ccc(Cl)cc2)n2c(s/c(=C\c3ccc(OCC(=O)O)cc3)c2=O)=N1` (centres undefined) was tested, and the CC50 was > 100 µM (inactive).
With `CCc1ccc(-c2ccc(/C=C3\SC(=S)N(CCCC(=O)O)C3=O)o2)cc1` the CC50 was > 100 µM (inactive).
With `Nc1sc2ccccc2[n+]1Cc1ccc(C(=O)O)cc1` the CC50 was > 100 µM (inactive).
In the case of `COc1cccc(-n2cccc2/C=C2/C(=N)N3C(=NC2=O)SN=C3S(C)(=O)=O)c1`, the CC50 is reported as > 100 µM (inactive).
